{
  "source": "paper PMC5814047",
  "about": "“Peptidic inhibitors of insulin-degrading enzyme with potential for dermatological applications discovered via phage display” (PLoS ONE, 2018)",
  "key": {"cultured skin cells": {"test_system": "cultured skin cells", "assay": "Toxicity in cell culture experiments", "type": "cell-based", "excerpt": "Although a variety of potent and selective IDE inhibitors have been developed, current inhibitors are difficult to synthesize, expensive to generate and/or contain chemical moieties or constituents with established or undetermined potential for toxicity. Due to these and other considerations, existing IDE inhibitors are poorly suited for topical applications. To overcome these limitations, in the present study we aimed to develop peptidic inhibitors of IDE suitable for use in wound healing or cosmetic applications. […] To that end, we used phage display technology to select for a range of peptides that bind to IDE with strong affinity, which were then screened for resistance to degradation by IDE."}, "IDE": {"molecular_target": "T1, IDE (Homo sapiens, UniProt P14735)", "T1 construct": "made in house; host or cells: bacteria", "T1 sequence (P14735 1-1019)": "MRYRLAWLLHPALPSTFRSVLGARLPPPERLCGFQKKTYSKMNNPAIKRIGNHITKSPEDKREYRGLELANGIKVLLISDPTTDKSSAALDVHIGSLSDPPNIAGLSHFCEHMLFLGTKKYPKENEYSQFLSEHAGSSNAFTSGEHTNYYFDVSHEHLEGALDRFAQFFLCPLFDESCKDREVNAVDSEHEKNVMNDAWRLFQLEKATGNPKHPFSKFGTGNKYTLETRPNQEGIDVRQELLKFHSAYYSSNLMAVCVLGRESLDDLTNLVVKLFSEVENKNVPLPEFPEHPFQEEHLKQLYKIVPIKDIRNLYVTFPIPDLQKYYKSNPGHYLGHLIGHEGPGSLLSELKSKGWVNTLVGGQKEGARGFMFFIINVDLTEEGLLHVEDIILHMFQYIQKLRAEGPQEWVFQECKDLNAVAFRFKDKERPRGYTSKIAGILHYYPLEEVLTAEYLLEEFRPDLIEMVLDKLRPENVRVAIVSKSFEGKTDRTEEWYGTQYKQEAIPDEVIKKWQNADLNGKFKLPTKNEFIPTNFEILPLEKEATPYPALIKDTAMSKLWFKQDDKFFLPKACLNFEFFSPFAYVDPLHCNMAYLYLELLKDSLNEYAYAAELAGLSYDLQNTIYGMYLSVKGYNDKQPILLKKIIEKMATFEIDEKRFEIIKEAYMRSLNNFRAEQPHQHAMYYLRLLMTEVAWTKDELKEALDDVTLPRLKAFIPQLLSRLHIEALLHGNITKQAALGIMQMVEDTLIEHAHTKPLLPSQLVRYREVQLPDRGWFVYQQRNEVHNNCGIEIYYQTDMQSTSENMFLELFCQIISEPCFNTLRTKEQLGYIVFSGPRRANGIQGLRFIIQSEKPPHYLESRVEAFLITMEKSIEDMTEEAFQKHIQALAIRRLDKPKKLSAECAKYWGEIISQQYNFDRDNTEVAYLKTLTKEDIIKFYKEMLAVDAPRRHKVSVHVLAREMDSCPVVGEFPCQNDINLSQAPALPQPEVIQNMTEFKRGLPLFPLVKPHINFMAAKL", "assay": "IDE activity assay, FAßB (amyloid ß-protein) degradation (fluorescence polarization)", "type": "biochemical", "experimental": "Taken together with the potency of all peptides against insulin (Table 1), we concluded that P12-3A represented the best inhibitor for further studies, and a highly purified, deliberately cyclized version (Fig 3A) was synthesized. […] Based on its potency, stability and selectivity for IDE, P12-3A was selected for use in downstream assays.\nIDE activity was quantified by monitoring the degradation of Mca-[…](Dnp) (FRET1, 5 μM), fluoresceinated and biotinylated amyloid ß-protein (FAßB; 500 nM) or recombinant human insulin (50 nM) in PBS supplemented with 0.05% BSA. FRET1 degradation was measured by changes in fluorescence (λex = 340 nm, λem = 420 nm); FAßB degradation was monitored by fluorescence polarization (λex = 488 nm, λem = 525 nm), as described; and insulin degradation was quantified by ELISA. In vitro activity assays incorporated recombinant human IDE (1 nM) purified from bacteria. For quantitation of insulin degradation in primary murine skin fibroblasts, cells (1 x 10^5/well) were plated in 96-well plates and maintained in DMEM supplemented with 10% fetal bovine serum (FBS), 2mM glutamine, penicillin and streptomycin. After addition of insulin (10 nM or 100 nM), samples of conditioned medium were removed daily and quickly frozen, then insulin levels were quantified in parallel by ELISA according to manufacturer’s recommendations (Crystal Chem, Downers Grove, IL, USA). Assessment of the activity of P12-3A against a variety of matrix-metalloproteases was conducted using the Matrix Metalloproteinase (MMP) Inhibitor Profiling Kit, Fluorometric RED (Enzo Life Sciences, Inc., Farmingdale, NY, USA) according to manufacturer’s recommendations using the broad-spectrum MMP inhibitor, NNGH, as a positive control."}},
  "note": "Bridge positions count the residues as written; N and C are the ends. Peptide text beside a SMILES is read from it.",
  "data": [
    {"smiles": "CC(C)C[C@H](NC(=O)[C@H](CO)NC(=O)[C@@H](N)CCC(N)=O)C(=O)N1CCC[C@H]1C(=O)N[C@@H](Cc1c[nH]c2ccccc12)C(=O)N[C@H]1CSSC[C@@H](C(=O)N[C@H](C(=O)N[C@H](C(N)=O)[C@@H](C)O)C(C)C)NC(=O)[C@H](Cc2c[nH]cn2)NC(=O)[C@@H]2CCCN2C(=O)[C@H](Cc2ccc(O)cc2)NC1=O", "note": "[P12-3A] (H-QSLPWCYPHCVT-NH2; disulfide 6-10 (inferred))", "values": [
      {"measurement": "toxicity in cell culture experiments", "setting": "cultured skin cells", "result": "no evidence of toxicity"},
      {"measurement": "remaining activity at 0.0005 µM", "setting": "IDE; FAßB, P12-3A 0.0005 uM, Replicates 4-6, read-out: Percent Activity (normalized source data)", "result": 103, "unit": "%"},
      {"measurement": "remaining activity at 0.0016 µM", "setting": "IDE; FAßB, P12-3A 0.0016 uM, Replicates 4-6, read-out: Percent Activity (normalized source data)", "result": 102, "unit": "%"},
      {"measurement": "remaining activity at 0.005 µM", "setting": "IDE; FAßB, P12-3A 0.005 uM, Replicates 4-6, read-out: Percent Activity (normalized source data)", "result": 103, "unit": "%"},
      {"measurement": "remaining activity at 0.016 µM", "setting": "IDE; FAßB, P12-3A 0.016 uM, Replicates 4-6, read-out: Percent Activity (normalized source data)", "result": 77.6, "unit": "%"},
      {"measurement": "remaining activity at 0.05 µM", "setting": "IDE; FAßB, P12-3A 0.050 uM, Replicates 4-6, read-out: Percent Activity (normalized source data)", "result": 88.7, "unit": "%"},
      {"measurement": "remaining activity at 0.12 µM", "setting": "IDE; FAßB, P12-3A 0.12 uM, Replicates 1-3, read-out: Percent Activity (normalized source data)", "result": 96.6, "unit": "%"},
      {"measurement": "remaining activity at 0.16 µM", "setting": "IDE; FAßB, P12-3A 0.16 uM, Replicates 4-6, read-out: Percent Activity (normalized source data)", "result": 93.1, "unit": "%"},
      {"measurement": "remaining activity at 0.24 µM", "setting": "IDE; FAßB, P12-3A 0.24 uM, Replicates 1-3, read-out: Percent Activity (normalized source data)", "result": 79.9, "unit": "%"},
      {"measurement": "remaining activity at 0.49 µM", "setting": "IDE; FAßB, P12-3A 0.49 uM, Replicates 1-3, read-out: Percent Activity (normalized source data)", "result": 73.7, "unit": "%"},
      {"measurement": "remaining activity at 0.5 µM", "setting": "IDE; FAßB, P12-3A 0.50 uM, Replicates 4-6, read-out: Percent Activity (normalized source data)", "result": 85.8, "unit": "%"},
      {"measurement": "remaining activity at 0.98 µM", "setting": "IDE; FAßB, P12-3A 0.98 uM, Replicates 1-3, read-out: Percent Activity (normalized source data)", "result": 66.9, "unit": "%"},
      {"measurement": "remaining activity at 1.6 µM", "setting": "IDE; FAßB, P12-3A 1.6 uM, Replicates 4-6, read-out: Percent Activity (normalized source data)", "result": 61.7, "unit": "%"},
      {"measurement": "remaining activity at 3.91 µM", "setting": "IDE; FAßB, P12-3A 3.91 uM, Replicates 1-3, read-out: Percent Activity (normalized source data)", "result": 48.4, "unit": "%"},
      {"measurement": "remaining activity at 5 µM", "setting": "IDE; FAßB, P12-3A 5.0 uM, Replicates 4-6, read-out: Percent Activity (normalized source data)", "result": 48.4, "unit": "%"},
      {"measurement": "remaining activity at 7.81 µM", "setting": "IDE; FAßB, P12-3A 7.81 uM, Replicates 1-3, read-out: Percent Activity (normalized source data)", "result": 43.4, "unit": "%"},
      {"measurement": "remaining activity at 15.6 µM", "setting": "IDE; FAßB, P12-3A 15.6 uM, Replicates 1-3, read-out: Percent Activity (normalized source data)", "result": 45.5, "unit": "%"},
      {"measurement": "remaining activity at 31.2 µM", "setting": "IDE; FAßB, P12-3A 31.2 uM, Replicates 1-3, read-out: Percent Activity (normalized source data)", "result": 38.5, "unit": "%"},
      {"measurement": "remaining activity at 62.5 µM", "setting": "IDE; FAßB, P12-3A 62.5 uM, Replicates 1-3, read-out: Percent Activity (normalized source data)", "result": 10.9, "unit": "%"},
      {"measurement": "remaining activity at 250 µM", "setting": "IDE; FAßB, P12-3A 250 uM, Replicates 1-3, read-out: Percent Activity (normalized source data)", "result": 9.54, "unit": "%"},
      {"measurement": "inhibition of IDE in the selectivity panel", "setting": "IDE; P12-3A 100 μM, S4 Fig", "result": "significant inhibition was observed exclusively for IDE"}
    ]}
  ]
}
